# Test results: patent US20240408093A1, “HETEROBIFUNCTIONAL COMPOUNDS AND THEIR USE IN TREATING DISEASE” (HALDA THERAPEUTICS OPCO, INC., priority 2022, published 2024)
# Experiments:
# [1] = test system: HEK293 cells (ATCC CRL-1573); assay: Cellular growth inhibition assay, HEK293 cells (Example 16); assay type: cell-based; conditions: Homo sapiens, 72 hours, CellTiter-Glo 2.0
# Procedure: (§1) Exemplary compounds were tested for ability to inhibit the proliferation of HEK293 cells (ATCC CRL-1573) and HeLa cells (ATCC CCL-2).
# (§2) HEK293 and HeLa cells were cultured in DMEM (Gibco 11995), supplemented with 10% Heat-inactivated FBS (Gibco A38400-01) and 1% Penicillin/Streptomycin (Gibco 15140-122) at 37° C. with 5% CO2 in a humidified tissue culture incubator. Cells were seeded at 500 cells/well in 384-well, Poly-D-lysine-treated blackplates (Perkin Elmer 6007710) in 25 μL media lacking selection for 18-24 hours. Plates were spun at 300 g for 30 seconds and stored in the incubator overnight. After 24 hours, a 25 μL aliquot of compound-containing medium was added in each well, at a final top concentration of 10 μM test compound, with 3-fold dilutions, using DMSO alone as a negative control. Plates were then spun at 300×g for 3 minutes again and cultured at 37° C. with 5% CO2. After 72 hours, cell viability was quantified with CellTiter-Glo 2.0 (Promega). After equilibrating cell plates at room temperature for 30 minutes, 25 μL CellTiter-Glo 2.0 reagent was dispensed into each well. Plates were mixed on a shaker for 2 minutes at 500 rpm, followed by a 10-minute incubation at room temperature. Luminescence readings were measured with an EnVision Plate Reader (Perkin Elmer). Data was normalized to DMSO treated cell wells. A four-parameter non-linear regression curve fit was applied to dose-response data in Prism to determine the half maximal growth inhibitory concentration (GI50) of each compound.
# [2] = test system: HeLa cells (ATCC CCL-2); assay: Cellular growth inhibition assay, HeLa cells (Example 16); assay type: cell-based; conditions: Homo sapiens, 72 hours, CellTiter-Glo 2.0
# Procedure: as §1, §2
# [3] = target: T1, GSPT1 (Homo sapiens, UniProt P15170+Q96SW2); assay: GSPT1 HiBiT degradation assay; assay type: cell-based; conditions: HEK293 LgBiT GSPT1 HiBiT cells, 6 hours
# T1 construct: host or cells: HEK293 LgBiT / GSPT1 HiBiT CRISPR knock-in
# Excerpt: Promega developed a HEK293 cell line that constitutively expresses LgBiT protein and GSPT1_HiBiT fusion protein. When both proteins are present, the HiBiT portion of the fusion protein combines with LgBiT protein to form a functional luciferase enzyme. Endurazine, a cell permeable small molecule, is converted by cellular esterases into furimazine, which the luciferase enzyme uses as a substrate to generate luminescence. When GSPT1 is degraded, the HiBit is also degraded. This prevents formation of fully functional luciferase, leading to a loss in luminescence. GSPT1 degradation therefore correlates with a decrease in luminescence and can be measured continuously over time. The concentration of compound at which 50% GSPT1 degradation occurs (DC50) may be calculated using this system.
# HEK293 LgBiTGSPT1 HiBiT CRISPR Knock-in cells were cultured in DMEM Media supplemented with 10% Heat-inactivated FBS, 1% Penicillin/Streptomycin, 200 μg/mL hygromycin and stored in a humidified incubator set at 37° C. and 5% CO2. 18-24 hours prior to compound treatment, cells were seeded at 1000 cells/well in a 384-well tissue culture-treated white plates in 25 μL media lacking selection for 18-24 hours. The plates were spun at 300 g for 30 seconds and stored in the incubator overnight. After 24 hours, compounds are titrated in DMSO and added to media supplemented with endurazine substrate. A 25 μL aliquot of 2× compound/endurazine in media is then added to the 384-well microplate with seeded cells. (Endurazine is used at a final concentration of 0.5×). The plate was spun at 300 g for 30 seconds and stored in the incubator. After 6 hours, the plate was read on a Perkin Elmer MultiMode Plate Reader Envision 2105 to measure luminescence signal. Data were plotted in Prism (Graphpad) and the concentration of compound at which 50% GSPT1 degradation occurs (DC50) was calculated.
# [4] = target: KRAS G12C (Homo sapiens, UniProt P01116, G12C); assay: KRAS G12C nucleotide exchange assay (SOS1-mediated, HTRF); assay type: biochemical; design: GST-tagged KRAS G12C (amino acids 2-169); conditions: 1 hr pre-incubation
# Procedure: KRAS target engagement (IC50 determination) was performed using a KRAS G12C nucleotide exchange assay. Specifically, compounds were tested against KRAS G12C in 10-point concentration IC50 mode with 3-fold serial dilution at a starting concentration of 10 μM. ARS1620 was used as a control.
# Briefly, GST-tagged KRAS G12C (amino acids 2-169) was mixed with anti-GST Tb antibody (1.5× solution) and 10 μL was delivered to reaction wells. Compounds were delivered using an acoustic dispenser (Echo, Labcyte) and pre-incubated with protein for 1 hr at RT. KRAS/anti-GST Tb Ab/compound mixture was incubated for 1 hour at room temperature. A 3× solution of SOS1 (amino acids 564-1049) and GTP-DY-647P1 (GTP*) was prepared in reaction buffer. A 5 μL aliquot of SOS1/GTP* solution was added to reaction wells to initiate the exchange reaction. No-SOS1 reaction or max compound concentration was used as blank. The final concentrations of KRAS G12C, SOS1, and GTP* were 30 nM, 20 nM, and 0.15 μM, respectively. SOS1 mediated exchange of GDP to GTP-DY-647P was measured using HTRF (Ex/Em=(320-75/665-7.5; 615-8.5)) using an Envision Plate Reader (Perkin Elmer). IC50 determination was performed using a Sigmoidal dose response (variable slope) equation.
# T1 sequence (P15170 whole entry): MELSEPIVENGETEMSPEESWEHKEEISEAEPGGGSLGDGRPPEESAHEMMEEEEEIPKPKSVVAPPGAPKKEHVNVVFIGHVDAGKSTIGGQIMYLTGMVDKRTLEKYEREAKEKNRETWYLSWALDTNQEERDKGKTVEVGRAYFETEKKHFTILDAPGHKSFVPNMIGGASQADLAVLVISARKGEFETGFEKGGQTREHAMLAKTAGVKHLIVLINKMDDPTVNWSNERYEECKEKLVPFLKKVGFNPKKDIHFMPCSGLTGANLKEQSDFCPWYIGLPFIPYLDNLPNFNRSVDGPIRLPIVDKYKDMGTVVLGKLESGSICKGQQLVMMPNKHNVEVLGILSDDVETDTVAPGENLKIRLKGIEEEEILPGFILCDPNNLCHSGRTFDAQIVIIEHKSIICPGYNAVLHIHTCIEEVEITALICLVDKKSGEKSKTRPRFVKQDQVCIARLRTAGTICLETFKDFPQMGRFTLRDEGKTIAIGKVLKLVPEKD
# T1 sequence (Q96SW2 whole entry): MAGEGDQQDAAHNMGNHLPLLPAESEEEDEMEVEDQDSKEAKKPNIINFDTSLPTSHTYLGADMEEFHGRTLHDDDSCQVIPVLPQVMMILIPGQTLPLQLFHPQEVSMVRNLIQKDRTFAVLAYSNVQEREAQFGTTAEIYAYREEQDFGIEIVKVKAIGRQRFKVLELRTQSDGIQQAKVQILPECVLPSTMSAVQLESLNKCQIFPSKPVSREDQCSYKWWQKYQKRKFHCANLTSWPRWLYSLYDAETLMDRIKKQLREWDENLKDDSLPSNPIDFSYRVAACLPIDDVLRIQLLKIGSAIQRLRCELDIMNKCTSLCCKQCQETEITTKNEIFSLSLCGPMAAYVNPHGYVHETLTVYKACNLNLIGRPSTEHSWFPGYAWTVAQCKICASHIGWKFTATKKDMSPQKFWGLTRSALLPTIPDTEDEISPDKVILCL
# T1 sequence (Q16531 whole entry partner): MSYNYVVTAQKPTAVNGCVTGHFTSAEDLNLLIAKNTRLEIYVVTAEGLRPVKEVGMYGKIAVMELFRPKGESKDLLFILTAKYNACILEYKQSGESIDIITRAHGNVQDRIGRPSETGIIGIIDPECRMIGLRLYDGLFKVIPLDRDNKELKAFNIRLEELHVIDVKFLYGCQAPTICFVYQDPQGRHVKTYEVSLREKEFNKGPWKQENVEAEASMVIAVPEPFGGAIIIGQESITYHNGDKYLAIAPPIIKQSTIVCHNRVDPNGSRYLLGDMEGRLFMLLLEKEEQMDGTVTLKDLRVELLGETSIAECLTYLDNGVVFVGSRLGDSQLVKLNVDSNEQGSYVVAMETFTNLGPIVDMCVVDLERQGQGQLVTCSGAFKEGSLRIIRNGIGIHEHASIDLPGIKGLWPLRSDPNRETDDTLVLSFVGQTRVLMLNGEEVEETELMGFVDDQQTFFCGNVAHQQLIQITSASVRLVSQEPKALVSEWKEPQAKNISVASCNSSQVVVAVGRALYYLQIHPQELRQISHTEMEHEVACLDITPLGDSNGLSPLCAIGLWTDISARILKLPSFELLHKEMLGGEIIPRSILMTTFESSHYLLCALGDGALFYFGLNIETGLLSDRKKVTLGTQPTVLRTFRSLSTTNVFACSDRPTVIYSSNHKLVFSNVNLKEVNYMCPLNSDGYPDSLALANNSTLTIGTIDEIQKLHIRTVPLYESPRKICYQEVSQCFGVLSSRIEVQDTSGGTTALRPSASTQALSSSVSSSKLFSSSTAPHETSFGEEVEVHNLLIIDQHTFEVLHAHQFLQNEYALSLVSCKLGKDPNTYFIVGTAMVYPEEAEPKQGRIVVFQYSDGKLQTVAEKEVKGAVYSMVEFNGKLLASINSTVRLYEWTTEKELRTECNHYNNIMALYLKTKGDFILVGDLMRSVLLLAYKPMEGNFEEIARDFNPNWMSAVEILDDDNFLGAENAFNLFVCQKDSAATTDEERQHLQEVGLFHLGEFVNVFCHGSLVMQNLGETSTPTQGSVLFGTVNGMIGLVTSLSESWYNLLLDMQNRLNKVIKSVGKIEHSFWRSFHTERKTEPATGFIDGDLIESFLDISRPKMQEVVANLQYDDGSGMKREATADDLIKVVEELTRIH
# Sequence of KRAS G12C (P01116 2-169 isoform P01116-2 G12C): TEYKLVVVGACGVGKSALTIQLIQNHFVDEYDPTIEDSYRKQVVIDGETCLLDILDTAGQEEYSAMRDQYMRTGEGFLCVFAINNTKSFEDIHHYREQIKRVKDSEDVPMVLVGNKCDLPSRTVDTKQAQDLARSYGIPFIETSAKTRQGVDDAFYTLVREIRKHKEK
smiles,measurement,setting,value
C=C(CN1C(=O)CCC(N2Cc3cc(CNC(=O)NCc4cccc(C(F)(F)F)c4O)ccc3C2=O)C1=O)C(=O)N1CCN(c2nc(OC[C@@H]3CCCN3C)nc3c2CCN(c2cccc4cccc(Cl)c24)C3)C[C@@H]1CC#N (stereo in doubt) [Compound I-94],GI50,[1],1500 to 10000 nM
same,GI50,[2],> 10 µM
"C=C(CN1C(=O)CCC(N2Cc3cc(CNC(=O)Nc4ccc(C)c(Cl)c4)ccc3C2=O)C1=O)C(=O)N1CCN(c2nc(=O)n(-c3c(C)ccnc3C(C)C)c3nc(-c4c(O)cccc4F)c(F)cc23)[C@@H](C)C1 (stereo partly drawn) [Compound I-1, 1-(3-chloro-4-methyl-phenyl)-3-[[2-[1-[2-[(3S)-4-[6-fluoro-7-(2-fluoro-6-hydroxy-phenyl)-1-(2-isopropyl-4-methyl-3-pyridyl)-2-oxo-pyrido[2,3-d]pyrimidin-4-yl]-3-methyl-piperazine-1-carbonyl]allyl]-2,6-dioxo-3-piperidyl]-1-oxo-isoindolin-5-yl]methyl]urea]",DC50,[3],500 to 2500 nM
"C=C(CN1C(=O)CCC(N2Cc3cc(CNC(=O)Nc4ccc(C)c(Cl)c4)ccc3C2=O)C1=O)C(=O)N1CCN(c2nc(OC[C@@H]3CCCN3C)nc3c2CCN(c2cccc4cccc(Cl)c24)C3)C[C@@H]1CC#N (stereo partly drawn) [Compound I-2, 1-(3-chloro-4-methyl-phenyl)-3-[[2-[1-[2-[(2S)-4-[7-(8-chloro-1-naphthyl)-2-[[(2S)-1-methylpyrrolidin-2-yl]methoxy]-6,8-dihydro-5H-pyrido[3,4-d]pyrimidin-4-yl]-2-(cyanomethyl)piperazine-1-carbonyl]allyl]-2,6-dioxo-3-piperidyl]-1-oxo-isoindolin-5-yl]methyl]urea]",IC50,[4],> 10 µM
same,DC50,[3],50 to 500 nM
C=C(CN(Cc1ccc2c(c1)CN(C1CCC(=O)NC1=O)C2=O)C(=O)Nc1ccc(C)c(Cl)c1)C(=O)N1CCN(c2nc(OC[C@@H]3CCCN3C)nc3c2CCN(c2cccc4cccc(Cl)c24)C3)C[C@@H]1CC#N (stereo partly shown) [Compound I-33],GI50,[1],1500 to 10000 nM
same,DC50,[3],> 2500 nM
same,GI50,[2],1.5 to 10 µM
C=C(CN(C(=O)NCc1ccc2c(c1)CN(C1CCC(=O)NC1=O)C2=O)c1ccc(C)c(Cl)c1)C(=O)N1CCN(c2nc(OC[C@@H]3CCCN3C)nc3c2CCN(c2cccc4cccc(Cl)c24)C3)C[C@@H]1CC#N (stereo partly shown) [Compound I-34],GI50,[1],< 500 nM
same,DC50,[3],50 to 500 nM
same,GI50,[2],1.5 to 10 µM
C=C(COc1ccc(CN2C(=O)CCC(N3Cc4cc(CNC(=O)Nc5ccc(C)c(Cl)c5)ccc4C3=O)C2=O)cc1)C(=O)N1CCC[C@@H](n2nc(-c3ccc(Oc4ccccc4)cc3)c3c(N)ncnc32)C1 (stereo partly shown) [Compound I-36],GI50,[1],> 10000 nM
same,DC50,[3],> 2500 nM
same,GI50,[2],> 10 µM
C=C(CN(C(=O)NCc1ccc2c(c1)CN(C1CCC(=O)NC1=O)C2=O)c1cc(Cl)cc([N+](=O)[O-])c1)C(=O)N1CCC[C@@H](n2nc(-c3ccc(Oc4ccccc4)cc3)c3c(N)ncnc32)C1 (stereo partly shown) [Compound I-37],DC50,[3],> 2500 nM
C=C(CN(C(=O)NCc1ccc2c(c1)CN(C1CCC(=O)NC1=O)C2=O)c1ccc(OC)c(Cl)c1)C(=O)N1CCC[C@@H](n2nc(-c3ccc(Oc4ccccc4)cc3)c3c(N)ncnc32)C1 (stereo partly shown) [Compound I-39],GI50,[1],> 10000 nM
same,DC50,[3],> 2500 nM
same,GI50,[2],> 10 µM
C=C(CN(C(=O)NCc1ccc2c(c1)CN(C1CCC(=O)NC1=O)C2=O)c1cc(Cl)cc(OC)c1)C(=O)N1CCC[C@@H](n2nc(-c3ccc(Oc4ccccc4)cc3)c3c(N)ncnc32)C1 (stereo partly shown) [Compound I-40],GI50,[1],> 10000 nM
same,DC50,[3],> 2500 nM
same,GI50,[2],> 10 µM
C=C(COc1c(F)cc(CN2C(=O)CCC(N3Cc4cc(CNC(=O)Nc5ccc(C)c(Cl)c5)ccc4C3=O)C2=O)cc1F)C(=O)N1CCC[C@@H](n2nc(-c3ccc(Oc4ccccc4)cc3)c3c(N)ncnc32)C1 (stereo partly shown) [Compound I-51],GI50,[1],> 10000 nM
same,DC50,[3],> 2500 nM
same,GI50,[2],> 10 µM
"C=C(COC(=O)NCc1cc(Cl)cc(NC(=O)NCc2ccc3c(c2)CN(C2CCC(=O)NC2=O)C3=O)c1)C(=O)N1CCC[C@@H](n2nc(-c3ccc(Oc4ccccc4)cc3)c3c(N)ncnc32)C1 (stereo partly drawn) [Compound I-53, 2-((R)-3-(4-amino-3-(4-phenoxyphenyl)-1H-pyrazolo[3,4-d]pyrimidin-1-yl)piperidine-1-carbonyl)allyl (3-chloro-5-(3-((2-(2,6-dioxopiperidin-3-yl)-1-oxoisoindolin-5-yl)methyl)ureido)benzyl)carbamate]",GI50,[1],500 to 1500 nM
same,DC50,[3],50 to 500 nM
same,GI50,[2],0.5 to 1.5 µM
C=C(COc1cccc(NC(=O)NCc2ccc3c(c2)CN(C2CCC(=O)NC2=O)C3=O)c1Cl)C(=O)N1CCN(c2nc(OC[C@@H]3CCCN3C)nc3c2CCN(c2cccc4cccc(Cl)c24)C3)C[C@@H]1CC#N (stereo partly shown) [Compound I-91],GI50,[1],> 10000 nM
same,GI50,[2],> 10 µM
C=C(COc1ccc2c(Cl)c(NC(=O)NCc3ccc4c(c3)CN(C3CCC(=O)NC3=O)C4=O)ccc2c1)C(=O)N1CCN(c2nc(OC[C@@H]3CCCN3C)nc3c2CCN(c2cccc4cccc(Cl)c24)C3)C[C@@H]1CC#N (stereo partly shown) [Compound I-92],GI50,[1],< 500 nM
same,GI50,[2],> 10 µM
C=C(Cn1ccc2ccc(NC(=O)NCc3ccc4c(c3)CN(C3CCC(=O)NC3=O)C4=O)cc21)C(=O)N1CCN(c2nc(OC[C@@H]3CCCN3C)nc3c2CCN(c2cccc4cccc(Cl)c24)C3)C[C@@H]1CC#N (stereo partly shown) [Compound I-93],GI50,[1],500 to 1500 nM
same,GI50,[2],0.5 to 1.5 µM
C=C(COc1cc(NC(=O)NCc2ccc3c(c2)CN(C2CCC(=O)NC2=O)C3=O)cc(OC)c1Cl)C(=O)N1CCN(c2nc(OC[C@@H]3CCCN3C)nc3c2CCN(c2cccc4cccc(Cl)c24)C3)C[C@@H]1CC#N (stereo partly shown) [Compound I-96],GI50,[1],> 10000 nM
same,GI50,[2],> 10 µM
C=C(COc1c(Cl)cccc1NC(=O)NCc1ccc2c(c1)CN(C1CCC(=O)NC1=O)C2=O)C(=O)N1CCC[C@@H](n2nc(-c3ccc(Oc4ccccc4)cc3)c3c(N)ncnc32)C1 (stereo partly shown) [Compound I-115],GI50,[1],1500 to 10000 nM
same,DC50,[3],< 50 nM
same,GI50,[2],0.5 to 1.5 µM
C=C(COC(=O)NC1CCC(Nc2nc(NCc3ccc(-c4ccccn4)cc3)c3ncn(C(C)C)c3n2)CC1)C(=O)N1CCN(c2nc(OC[C@@H]3CCCN3C)nc3c2CCN(c2cccc4cccc(Cl)c24)C3)C[C@@H]1CC#N (stereo partly shown) [II-192],GI50,[1],500 to 1500 nM
same,GI50,[2],< 0.5 µM
